pKi: −log10 of the molar value.
Legend:
[1] = target: T1, human QC (Homo sapiens, UniProt Q16769); settings: Busby, W. H. J. et al. 1987; cited from earlier work
[2] = target: T1, human QC; test: Inhibitor assay of glutaminyl cyclase (QC), determination of Ki-values; settings: for inhibition of human QC (in words): Example 5
Experimental: Excitation/emission wavelengths were 320/410 nm. The assay reactions were initiated by addition of glutaminyl cyclase.
Reactions were carried out at 30° C. utilizing the NOVOStar reader for microplates (BMG labtechnologies). […] Excitation/emission wavelengths were 380/460 nm. The assay reactions were initiated by addition of glutaminyl cyclase. […] The kinetic data were evaluated using GraFit sofware.
The initial velocities were evaluated and the enzymatic activity was determined from a standard curve of ammonia under assay conditions. All samples were measured at 30° C., using either the [sequence]luor Plus or the Sunrise (both from TECAN) reader for microplates. Kinetic data was evaluated using GraFit software.
For inhibitor testing, the sample composition was the same as described above, except of the putative inhibitory compound added. […] For detailed investigations of the inhibition and determination of Ki-values, influence of the inhibitor on the auxiliary enzymes was investigated first.

T1 sequence (Q16769 29-361): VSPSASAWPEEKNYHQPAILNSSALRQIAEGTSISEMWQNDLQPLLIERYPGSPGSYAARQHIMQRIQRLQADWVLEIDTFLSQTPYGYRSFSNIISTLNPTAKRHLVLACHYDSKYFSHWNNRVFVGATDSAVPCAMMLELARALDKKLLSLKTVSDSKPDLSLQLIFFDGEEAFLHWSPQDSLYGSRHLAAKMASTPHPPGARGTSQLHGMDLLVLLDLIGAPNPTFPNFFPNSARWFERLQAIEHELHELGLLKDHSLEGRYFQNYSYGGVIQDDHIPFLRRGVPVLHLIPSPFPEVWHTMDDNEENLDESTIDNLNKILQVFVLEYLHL

Row | Molecule | inhibition of human QC detected [1] | inhibition of human QC (in words) [2] | other results
1 | c1cnc2c(c1)ccc1cccnc12 [1,10-phenanthroline] | inhibition | – | –
2 | Cn1cnc(CCN)c1 [1-methyl-4-(β-amino-ethyl)-imi-dazole] | – | complete loss of inhibitory activity | –
3 | c1ccc(-n2ccnc2)cc1 [1-phenylimidazole] | – | inactive | –
4 | CC(=O)c1ccc(NC(=S)NCCCn2ccnc2)cc1 [Example 9] | – | – | pKi [2]: 5.75
5 | reduced 6-methylpterin | inhibition | – | –

— patent US7371871B2, “Inhibitors of glutaminyl cyclase” (Probiodrug AG, priority 2003, dated 2008)
